Measurements published in PubChem BioAssay (NCI).
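Interpolation was linear, between the two tested concentrations surrounding the appropriate level; five concentrations were tested over 48 hours in 96-well plates. TGI is the concentration that stops growth completely.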

Assays:
Assay in all cases: NCI tumour cell line growth inhibition, 48 h
U251 CNS = tested on: U251 CNS
NCI-H460 lung = tested on: NCI-H460 lung
KM20L2 colon = tested on: KM20L2 colon
DLD-1 colon = tested on: DLD-1 colon
NCI/ADR-RES ovarian = tested on: NCI/ADR-RES ovarian
HOP-62 NSCLC = tested on: HOP-62 NSCLC
K-562 leukemia = tested on: K-562 leukemia
EKVX NSCLC = tested on: EKVX NSCLC
SK-OV-3 ovarian = tested on: SK-OV-3 ovarian
CAKI-1 renal = tested on: CAKI-1 renal
HCC-2998 colon = tested on: HCC-2998 colon
RPMI-8226 leukemia = tested on: RPMI-8226 leukemia
SNB-78 CNS = tested on: SNB-78 CNS
HT29 colon = tested on: HT29 colon
LOX IMVI melanoma = tested on: LOX IMVI melanoma
SF-539 CNS = tested on: SF-539 CNS
OVCAR-3 ovarian = tested on: OVCAR-3 ovarian
HOP-92 NSCLC = tested on: HOP-92 NSCLC
HOP-18 NSCLC = tested on: HOP-18 NSCLC
OVCAR-4 ovarian = tested on: OVCAR-4 ovarian
P388/ADR leukemia = tested on: P388/ADR leukemia
SW-620 colon = tested on: SW-620 colon
MCF7 breast = tested on: MCF7 breast
OVCAR-8 ovarian = tested on: OVCAR-8 ovarian
DMS 114 small cell lung = tested on: DMS 114 small cell lung
NCI-H23 lung = tested on: NCI-H23 lung
CCRF-CEM leukemia = tested on: CCRF-CEM leukemia
SK-MEL-5 melanoma = tested on: SK-MEL-5 melanoma
IGROV1 ovarian = tested on: IGROV1 ovarian
SN12K1 renal = tested on: SN12K1 renal
RXF 393 renal = tested on: RXF 393 renal
A498 renal = tested on: A498 renal
M19-MEL melanoma = tested on: M19-MEL melanoma
DMS 273 small cell lung = tested on: DMS 273 small cell lung
SK-MEL-2 melanoma = tested on: SK-MEL-2 melanoma
SF-268 CNS = tested on: SF-268 CNS
OVCAR-5 ovarian = tested on: OVCAR-5 ovarian
HCT-116 colon = tested on: HCT-116 colon
UO-31 renal = tested on: UO-31 renal
MALME-3M melanoma = tested on: MALME-3M melanoma
SNB-19 CNS = tested on: SNB-19 CNS
SNB-75 CNS = tested on: SNB-75 CNS
KM12 colon = tested on: KM12 colon
HL-60(TB) leukemia = tested on: HL-60(TB) leukemia
SN12C renal = tested on: SN12C renal
XF 498 CNS = tested on: XF 498 CNS
P388 leukemia = tested on: P388 leukemia
NCI-H226 lung = tested on: NCI-H226 lung
NCI-H522 lung = tested on: NCI-H522 lung
SF-295 CNS = tested on: SF-295 CNS
UACC-257 melanoma = tested on: UACC-257 melanoma
HCT-15 colon = tested on: HCT-15 colon
A549 NSCLC = tested on: A549 NSCLC
MOLT-4 leukemia = tested on: MOLT-4 leukemia
COLO 205 colon = tested on: COLO 205 colon
UACC-62 melanoma = tested on: UACC-62 melanoma
SK-MEL-28 melanoma = tested on: SK-MEL-28 melanoma

Compound: Oc1c(CNCCCN2CCCC2)cc(Cl)c2cccnc12
- TGI (U251 CNS): 17 µM
- TGI (NCI-H460 lung): 10.6 µM
- TGI (KM20L2 colon): 14.4 µM
- TGI (DLD-1 colon): 15 µM
- TGI (NCI/ADR-RES ovarian): 7.68 µM
- TGI (HOP-62 NSCLC): 7.24 µM
- TGI (K-562 leukemia): 7.38 µM
- TGI (EKVX NSCLC): 12.4 µM
- TGI (SK-OV-3 ovarian): 15 µM
- TGI (CAKI-1 renal): 12.5 µM
- TGI (HCC-2998 colon): 10.2 µM
- TGI (RPMI-8226 leukemia): 16.3 µM
- TGI (SNB-78 CNS): 33.5 µM
- TGI (HT29 colon): 17.3 µM
- TGI (LOX IMVI melanoma): 15.3 µM
- TGI (SF-539 CNS): 10.1 µM
- TGI (OVCAR-3 ovarian): 11.9 µM
- TGI (HOP-92 NSCLC): 33.7 µM
- TGI (HOP-18 NSCLC): 20.6 µM
- TGI (OVCAR-4 ovarian): 16.9 µM
- TGI (P388/ADR leukemia): 6.32 µM
- TGI (SW-620 colon): 17.1 µM
- TGI (MCF7 breast): 15.9 µM
- TGI (OVCAR-8 ovarian): 15.7 µM
- TGI (DMS 114 small cell lung): 9.24 µM
- TGI (NCI-H23 lung): 23.9 µM
- TGI (CCRF-CEM leukemia): 13.6 µM
- TGI (SK-MEL-5 melanoma): 5.77 µM
- TGI (IGROV1 ovarian): 20.7 µM
- TGI (SN12K1 renal): 4.1 µM
- TGI (RXF 393 renal): 25.2 µM
- TGI (A498 renal): 29.9 µM
- TGI (M19-MEL melanoma): 9.61 µM
- TGI (DMS 273 small cell lung): 10.4 µM
- TGI (SK-MEL-2 melanoma): 26.2 µM
- TGI (SF-268 CNS): 18.4 µM
- TGI (OVCAR-5 ovarian): 8.37 µM
- TGI (HCT-116 colon): 12.8 µM
- TGI (UO-31 renal): 21.3 µM
- TGI (MALME-3M melanoma): 17.4 µM
- TGI (SNB-19 CNS): > 100 µM
- TGI (SNB-75 CNS): 36.3 µM
- TGI (KM12 colon): 28.8 µM
- TGI (HL-60(TB) leukemia): 5.91 µM
- TGI (SN12C renal): 24.6 µM
- TGI (XF 498 CNS): 15.2 µM
- TGI (P388 leukemia): 9.18 µM
- TGI (NCI-H226 lung): 19.2 µM
- TGI (NCI-H522 lung): 12.4 µM
- TGI (SF-295 CNS): 5.49 µM
- TGI (UACC-257 melanoma): 24.2 µM
- TGI (HCT-15 colon): 16.2 µM
- TGI (A549 NSCLC): 11.3 µM
- TGI (MOLT-4 leukemia): 11.7 µM
- TGI (COLO 205 colon): 15.2 µM
- TGI (UACC-62 melanoma): 5.79 µM
- TGI (SK-MEL-28 melanoma): 23.6 µM
